The record followed here is patent US8207172B2 (Bayer Intellectual Property GmbH, priority 2004, dated 2012).

For assay [1], the system named is A431 cells (human epidermoid carcinoma). In words: In vitro tumor cell proliferation assay (Cell Titer-Glo luminescent cell viability), A431. It counts as cell-based. The conditions noted are these: A-431, 72 h, 72 hours of drug exposure, ATP luminescence readout, read-out: IC50, anti-proliferative activity (inhibition of cell proliferation). A digest of the protocol: (§1)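 CellTiter-Glo luminescence (ATP content of metabolically active cells) after 72 h compound exposure at 37° C gave IC50s.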
In general terms: ATP-based viability assays read luminescence as a measure of living cells.

Assay [2] deals with BT474 (human breast carcinoma). In words: In vitro tumor cell proliferation assay (Cell Titer-Glo luminescent cell viability), BT474. It counts as cell-based. The conditions noted are these: BT-474, 72 h, BT474 cells, 72 hours of drug exposure, ATP luminescence readout, read-out: IC50, anti-proliferative activity (inhibition of cell proliferation). The gist of the method:
as §1

Structures can show the parent of a compound that is named as a salt.

As to `CN1CCN(CCn2cc3c(n2)CCc2c-3sc3ncnc(Nc4ccc(OCc5ccccc5Cl)c(Cl)c4)c23)CC1` [Example 332, N-{3-chloro-4-[(2-chlorobenzyl)oxy]phenyl}-2-[2-(4-methylpiperazin-1-yl)ethyl]-4,5-dihydro-2H-pyrimido[5′,4′:4,5]thieno[2,3-e]indazol-6-amine], the IC50 in assay [1] is at most 5 µM; in assay [2], at most 1 µM.
With `CN1CCN(CCn2cc3c(n2)CCc2c-3sc3ncnc(Nc4ccc(OCc5cccc(Cl)c5)c(Cl)c4)c23)CC1` [Example 333, N-{3-chloro-4-[(3-chlorobenzyl)oxy]phenyl}-2-[2-(4-methylpiperazin-1-yl)ethyl]-4,5-dihydro-2H-pyrimido[5′,4′:4,5]thieno[2,3-e]indazol-6-amine], the IC50 is at most 5 µM in assay [1] and at most 1 µM in assay [2].
The matching figures for `CN1CCN(CCn2cc3c(n2)CCc2c-3sc3ncnc(Nc4ccc(OCc5ccccc5F)c(Cl)c4)c23)CC1` [Example 334, N-{3-chloro-4-[(2-fluorobenzyl)oxy]phenyl}-2-[2-(4-methylpiperazin-1-yl)ethyl]-4,5-dihydro-2H-pyrimido[5′,4′:4,5]thieno[2,3-e]indazol-6-amine]: at most 5 µM and at most 1 µM.
The matching figures for `Cc1cc(Nc2ncnc3sc4c(c23)CCc2nn(CCN3CCN(C)CC3)cc2-4)ccc1OCc1cccc(F)c1` [Example 335, N-{4-[(3-fluorobenzyl)oxy]-3-methylphenyl}-2-[2-(4-methylpiperazin-1-yl)ethyl]-4,5-dihydro-2H-pyrimido[5′,4′:4,5]thieno[2,3-e]indazol-6-amine]: at most 5 µM and at most 1 µM.
Regarding `CN1CCN(CCn2cc3c(n2)CCc2c-3sc3ncnc(Nc4ccc(OCc5cccc(C#N)c5)c(Cl)c4)c23)CC1` [Example 336, 3-{[2-chloro-4-({2-{2-(4-methylpiperazin-1-yl)ethyl]-4,5-dihydro-2H-pyrimido[5′,4′:4,5]thieno[2,3-e]indazol-6-yl}amino)phenoxy]methyl} benzonitrile], the IC50 was at most 5 µM in assay [1] and at most 1 µM in assay [2].
The matching figures for `CN1CCN(CCn2cc3c(n2)CCc2c-3sc3ncnc(Nc4ccc5c(cnn5Cc5ccccn5)c4)c23)CC1` [Example 338, 2-[2-(4-methylpiperazin-1-yl)ethyl]-N-[1-(pyridin-2-ylmethyl)-1H-indazol-5-yl]-4,5-dihydro-2H-pyrimido[5′,4′:4,5]thieno[2,3-e]indazol-6-amine]: at most 50 µM and at most 1 µM.
With `CN1CCN(CCn2cc3c(n2)CCc2c-3sc3ncnc(Nc4ccc(Oc5cccnc5)cc4)c23)CC1` [Example 340, 2-[2-(4-methylpiperazin-1-yl)ethyl]-N-[4-(pyridin-3-yloxy)phenyl]-4,5-dihydro-2H-pyrimido[5′,4′:4,5]thieno[2,3-e]indazol-6-amine], the IC50 in assay [1] is at most 50 µM; in assay [2], at most 5 µM.
The matching figures for `Cc1cc(Oc2ccc(Nc3ncnc4sc5c(c34)CCc3nn(CCN4CCN(C)CC4)cc3-5)c(F)c2)ccn1` [Example 341, N-{2-fluoro-4-[(2-methylpyridin-4-yl)oxy]phenyl}-2-[2-(4-methylpiperazin-1-yl)ethyl]-4,5-dihydro-2H-pyrimido[5′,4′:4,5]thieno[2,3-e]indazol-6-amine]: at most 50 µM and at most 5 µM.
The matching figures for `CN1CCN(CCn2cc3c(n2)CCc2c-3sc3ncnc(Nc4ccc(SCc5ccncc5)cc4)c23)CC1` [Example 342, 2-[2-(4-methylpiperazin-1-yl)ethyl]-N-{4-[(pyridin-4-ylmethyl)thio]phenyl}-4,5-dihydro-2H-pyrimido[5′,4′:4,5]thieno[2,3-e]indazol-6-amine]: at most 50 µM and at most 5 µM.
The matching figures for `CN1CCN(CCn2cc3c(n2)CCc2c-3sc3ncnc(Nc4ccc(Oc5cccnc5)c(F)c4)c23)CC1` [Example 343, N-[3-fluoro-4-(pyridin-3-yloxy)phenyl]-2-[2-(4-methylpiperazin-1-yl)ethyl]-4,5-dihydro-2H-pyrimido[5′,4′:4,5]thieno[2,3-e]indazol-6-amine]: at most 50 µM and at most 5 µM.
As to `CN1CCN(CCn2cc3c(n2)CCc2c-3sc3ncnc(Nc4cc(Cl)c(Cl)cc4F)c23)CC1` [Example 344, N-(4,5-dichloro-2-fluorophenyl)-2-[2-(4-methylpiperazin-1-yl)ethyl]-4,5-dihydro-2H-pyrimido[5′,4′:4,5]thieno[2,3-e]indazol-6-amine trifluoroacetate], the IC50 in assay [1] and in assay [2] was at most 5 µM throughout.
